Reference: ChEMBL document CHEMBL3745668, “Synthesis and biological evaluation of novel 5-hydroxylaminoisoxazole derivatives as lipoxygenase inhibitors and metabolism enhancing agents” (Bioorg Med Chem, 2016)
Active and inactive are the calls of the source. The calls are words filed in the database; no cut-off is given here.

Assays:
[1] = target: T1, Seed linoleate 13S-lipoxygenase-1 (Glycine max, UniProt P08170); assay: Inhibition of soybean LOX1 assessed as reduction in linoleic acid oxidation measured every 10 s for 10 mins by spectrophotometry analysis
T1 sequence (P08170 whole entry): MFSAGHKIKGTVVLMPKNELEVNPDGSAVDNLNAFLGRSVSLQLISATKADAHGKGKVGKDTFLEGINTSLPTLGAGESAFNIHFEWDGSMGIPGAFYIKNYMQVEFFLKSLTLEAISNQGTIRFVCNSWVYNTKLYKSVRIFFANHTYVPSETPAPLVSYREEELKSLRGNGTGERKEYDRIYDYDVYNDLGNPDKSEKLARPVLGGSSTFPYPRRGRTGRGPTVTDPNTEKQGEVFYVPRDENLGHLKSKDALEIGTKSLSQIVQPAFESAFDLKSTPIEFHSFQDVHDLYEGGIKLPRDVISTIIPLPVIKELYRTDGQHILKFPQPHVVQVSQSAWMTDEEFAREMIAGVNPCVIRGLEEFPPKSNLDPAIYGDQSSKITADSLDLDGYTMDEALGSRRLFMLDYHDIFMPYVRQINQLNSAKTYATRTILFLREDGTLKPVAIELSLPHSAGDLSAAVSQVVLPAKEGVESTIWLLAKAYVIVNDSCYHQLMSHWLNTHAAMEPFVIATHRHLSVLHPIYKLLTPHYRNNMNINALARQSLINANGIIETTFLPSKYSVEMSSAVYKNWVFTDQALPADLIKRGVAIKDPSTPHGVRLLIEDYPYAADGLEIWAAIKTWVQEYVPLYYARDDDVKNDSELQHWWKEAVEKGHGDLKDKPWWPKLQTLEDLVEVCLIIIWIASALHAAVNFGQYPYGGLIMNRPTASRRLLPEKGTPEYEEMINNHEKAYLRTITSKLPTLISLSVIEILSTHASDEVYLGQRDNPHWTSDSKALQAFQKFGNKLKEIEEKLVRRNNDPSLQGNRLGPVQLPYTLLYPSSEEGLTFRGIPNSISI

[2] = Antioxidant activity assessed as DPPH radical scavenging activity after 30 mins by spectrophotometry analysis; type: physicochemical
[3] = tested on: Brain; assay: Antioxidant activity in albino rat brain homogenate assessed as inhibition of Fe(II)-induced lipid peroxidation after 60 mins by TBARS assay; type: functional, tissue-based
[4] = tested on: Brain; assay: Antioxidant activity in albino rat brain homogenate assessed as inhibition of Fe(III)-induced lipid peroxidation after 60 mins by TBARS assay; type: functional, tissue-based; conditions: 1 h
[5] = Cytotoxicity against albino rat primary cerebellar granule neurons assessed as reduction in cell viability at 30 uM after 24 hrs by MTT assay relative to control; conditions: primary cerebellar granule neuron
[6] = species on record: Rattus norvegicus; assay: Increase in oxygen consumption rate of mitochondrial coupled state respiration in albino rat liver mitochondria using succinate as substrate at 10 uM by XF96 extracellular flux analysis in presence of rotenone; type: functional
[7] = species on record: Rattus norvegicus; assay: Increase in FCCP-stimulated oxygen consumption rate of mitochondrial coupled state respiration in albino rat liver mitochondria at 10 uM by XF96 extracellular flux analysis; type: functional
[8] = species on record: Rattus norvegicus; assay: Increase in oxygen consumption rate of mitochondrial resting respiration in albino rat liver mitochondria at 10 uM by XF96 extracellular flux analysis in presence of oligomycin; type: functional
[9] = species on record: Rattus norvegicus; assay: Effect on mitochondrial membrane potential in albino rat liver mitochondria using succinate as substrate by safranine A staining based assay in presence of rotenone or glutamate/malate; type: functional
[10] = species on record: Rattus norvegicus; assay: Effect on calcium-induced depolarization of albino rat liver mitochondria using succinate as substrate by safranine A staining based assay in presence of rotenone or glutamate/malate; type: functional
[11] = Cytotoxicity against albino rat primary cerebellar granule neurons assessed as reduction in cell viability at 30 uM after 24 hrs by MTT assay; conditions: primary cerebellar granule neuron
[12] = tested on: SH-SY5Y; assay: Cytotoxicity against human SH-SY5Y cells assessed as reduction in cell viability at 30 uM after 24 hrs by MTT assay relative to control; type: cell-based
[13] = target: T2, Seed linoleate 13S-lipoxygenase-1 (Glycine max) (UniProt P08170); assay: Inhibition of soybean LOX1 assessed as reduction in linoleic acid oxidation at 50 uM measured every 10 s for 10 mins by spectrophotometry analysis
T2 sequence (whole entry): T1 sequence (P08170 whole entry)

[14] = Antioxidant activity assessed as DPPH radical scavenging activity after 20 mins; type: physicochemical
[15] = tested on: Brain; assay: Antioxidant activity in Wstar rat brain homogenate assessed as inhibition of Fe(II)-induced TBARS formation incubated for 15 mins by spectrophotometry analysis; type: functional, tissue-based; conditions: 0.25 h
[16] = Rattus norvegicus, Brain, 1 h, read-out: IC50

## O=C(OCCC12CC3CC(CC(C3)C1)C2)c1cc(N(O)C2CCCO2)on1 (stereo not given)
[1]; read-out: IC50
  IC50: 0.4 µM
[2]
  EC50: 21 µM
[3]; [16]
  IC50: 3.15 µM
[4]
  IC50: 5.25 µM
[5]
  Activity: 77%
[6]
  Activity: Active
[7]
  Activity: Active
[8]
  Activity: inactive
[9]
  Activity: inactive
[10]
  Activity: inactive

## O=C(OCC12CC3CC(CC(C3)C1)C2)c1cc(N(O)C2CCCO2)on1 (stereo not given)
[1]; read-out: IC50
  IC50: 16 µM
[2]
  EC50: 70 µM
[3]; [16]
  IC50: 6.58 µM
[4]
  IC50: 22 µM
[11]
  Activity: Non-toxic
[12]
  Activity: 22%
[6]
  Activity: Active
[7]
  Activity: Active
[8]
  Activity: inactive
[9]
  Activity: inactive
[10]
  Activity: inactive

## CC12CC3CC(C)(C1)CC(OC(=O)c1cc(N(O)C4CCCO4)on1)(C3)C2 (stereo not given)
[1]; read-out: IC50
  IC50: 1 µM
[13]
  inhibition: Active
[2]
  EC50: 38 µM
[3]; [16]
  IC50: 5.16 µM
[4]
  IC50: 1.48 µM
[11]
  Activity: Non-toxic
[6]
  Activity: Active
[7]
  Activity: Active
[8]
  Activity: inactive
[9]
  Activity: inactive
[10]
  Activity: inactive

## O=C(OC12CC3CC(CC(C3)C1)C2)c1cc(N(O)C2CCCO2)on1 (stereo not given)
[1]; read-out: IC50
  IC50: 25 µM
[2]
  EC50: 16 µM
[3]; [16]
  IC50: 0.33 µM
[4]
  IC50: 1.37 µM
[6]
  Activity: Active
[7]
  Activity: Active
[8]
  Activity: inactive
[9]
  Activity: inactive
[10]
  Activity: inactive

## CC(C)OC(=O)C12CC3CC(CC(OC(=O)c4cc(N(O)C5CCCO5)on4)(C3)C1)C2 (stereo not given)
[1]; read-out: IC50
  IC50: 277 µM
[2]
  EC50: > 100 µM
[3]; [16]
  IC50: 2.74 µM
[4]
  IC50: 1.58 µM
[11]
  Activity: Non-toxic
[6]
  Activity: Active
[7]
  Activity: Active
[8]
  Activity: inactive
[9]
  Activity: inactive
[10]
  Activity: inactive

## O=C(OC1C2CC3CC(C2)CC1C3)c1cc(N(O)C2CCCO2)on1 (stereo not given)
[1]; read-out: IC50
  IC50: 4 µM
[2]
  EC50: 71 µM
[3]; [16]
  IC50: 10.5 µM
[4]
  IC50: 1.21 µM
[9]
  Activity: inactive
[10]
  Activity: inactive

## O=C(OCc1ccc(C23CC4CC(CC(C4)C2)C3)cc1)c1cc(N(O)C2CCCO2)on1 (stereo not given)
[1]
  IC50: Not Active
[2]
  EC50: > 100 µM
[3]; [16]
  IC50: 3.41 µM
[4]
  IC50: 5.45 µM
[11]
  Activity: Non-toxic
[6]
  Activity: Active
[7]
  Activity: Active
[8]
  Activity: inactive
[9]
  Activity: inactive
[10]
  Activity: inactive

## O=C(OCCOC12CC3CC(CC(C3)C1)C2)c1cc(N(O)C2CCCO2)on1 (stereo not given)
[1]
  IC50: Not Active
[2]
  EC50: > 100 µM
[3]
  IC50: Not Active
[4]
  IC50: 35 µM
[11]
  Activity: Non-toxic
[6]
  Activity: Active
[7]
  Activity: Active
[8]
  Activity: inactive
[9]
  Activity: inactive
[10]
  Activity: inactive

## C[C@H](c1cc2ccccc2s1)N(O)C(N)=O
[2]
  EC50: 14 µM
[14]
  IC50: 43 µM
[15]
  IC50: > 50 µM
